Test results reported in patent US4112217A, “Bis-hydrazones of daunomycin and adriamycin” (SRI International, priority 1977, dated 1978).
Structures can show the parent of a compound that is named as a salt. Where two headings read alike, the source gives them in different places.

What was measured:
[1] = test system: Cultured L1210 Leukemia Cells; assay: Inhibition of DNA synthesis in cultured lymphoid leukemia L1210 cells; format: cell-based; conditions: Mus musculus
Method: (§1) Biological testing data for compounds of this invention as the HCl salts, as well as for adriamycin and daunomycin, are presented in the table given below. The compounds were tested first in cultured lymphoid leukemia L1210 cells for inhibition of nucleic acid synthesis by previously reported procedures. The analogs were then tested against lymphocytic leukemia P388 implanted in mice, under the auspices of the NCI and according to its protocols which use the increased survival time of treated mice compared to controls as the measure of antitumor efficacy.
(§2) ^b Assay described in G. Tong, W. W. Lee, D. R. Black and D. W. Henry

[2] = test system: P388 Leukemia in Mice; assay: Antitumor efficacy vs lymphocytic leukemia P388 implanted in mice (NCI protocol); format: in vivo, mice (murine)
Method: as §1
^c Ip P388 murine leukemia treated ip on QD1-9 and Q4D 5, 9, 13
schedules according to standard NCI protocols. Assay described in R. I.
Geran, N. H. Greenberg, M. M. MacDonald, A. M. Schumacker and B. J.
Abbott, Cancer Chemother. Rep., Part 3, 3 (No. 2), 9 (1972), Protocol
1,200. T/C = ratio of survival time of treated mice to that of untreated
controls times 100. Untreated controls survive about 9 days.

[3] = test system: Cultured L1210 Leukemia Cells; assay: Inhibition of RNA synthesis in cultured lymphoid leukemia L1210 cells; format: cell-based; conditions: Mus musculus
Method: as §1, §2

[4] = L1210, read-out: Inhibition of Synthesis of DNA, ED50
[5] = Mus musculus, ip P388, treated ip, q4d 5,9,13, optimum dose 8 mg/kg, read-out: Antitumor Efficacy T/C
[6] = L1210, read-out: Inhibition of Synthesis of RNA, Ed50
[7] = Mus musculus, P388, ip, read-out: Antitumor Efficacy T/C
[8] = cultured L1210 leukemia cells, DNA synthesis, read-out: Inhibition of Synthesis of DNA, ED50
[9] = cultured L1210 leukemia cells, RNA synthesis, read-out: Inhibition of Synthesis of RNA, Ed50
[10] = Mus musculus, P388, ip, ip P388, treated ip, qd 1-9, optimum dose 6.25 mg/kg, read-out: Antitumor Efficacy T/C
[11] = Mus musculus, P388, ip, ip P388, treated ip, q4d 5,9,13, optimum dose 25 mg/kg, read-out: Antitumor Efficacy T/C

In the case of `COc1cccc2c1C(=O)c1c(O)c3c(c(O)c1C2=O)C[C@@](O)(C(=O)CO)C[C@@H]3O[C@H]1C[C@H](N)[C@H](O)[C@H](C)O1` [Adriamycin], the IC50 [1, 4] is reported as 1.5 µM, the response vs control in vivo at 8 mg/kg [2, 5] is reported as 157% and the response vs control in vivo at 1 mg/kg ([2]; Mus musculus, ip P388, treated ip, qd 1-9, optimum dose 1.0 mg/kg, read-out: Antitumor Efficacy T/C) is reported as 195%. For the same compound, the IC50 [3, 6] was 0.67 µM.

Compound `COc1cccc2c1C(=O)c1c(O)c3c(c(O)c1C2=O)C[C@@](O)(C(C)=O)C[C@@H]3O[C@H]1C[C@H](N)[C@H](O)[C@H](C)O1` [Daunomycin] has an IC50 [1, 4] of 0.49 µM, a response vs control in vivo at 8 mg/kg [2, 5] of 134% and a response vs control in vivo at 0.5 mg/kg ([2]; Mus musculus, ip P388, treated ip, qd 1-9, optimum dose 0.5 mg/kg, read-out: Antitumor Efficacy T/C) of 166%. For the same compound, the IC50 [3, 6] was 0.39 µM.

`COc1cccc2c1C(=O)c1c(O)c3c(c(O)c1C2=O)C[C@@](O)(C(C)=NNC(=O)CCC(=O)NN=C(C)[C@]1(O)Cc2c(O)c4c(c(O)c2[C@@H](O[C@H]2C[C@H](N)[C@H](O)[C@H](C)O2)C1)C(=O)c1c(OC)cccc1C4=O)C[C@@H]3O[C@H]1C[C@H](N)[C@H](O)[C@H](C)O1` [I, Bis(daunomycin) Succinylhydrazone Dihydrochloride] gave an IC50 [1, 4] of 13 µM, a response vs control in vivo at 6.25 mg/kg [2, 7] of 283% and a response vs control in vivo at 12.5 mg/kg [2, 7] of 307%. The response vs control in vivo at 20 mg/kg [2, 7] was 170%, the “treated mice survived until sacrifice at 30 days” value ([2]; qd 1-9, 6.25 mg/kg, sacrifice at 30 days) was “Three out of six” and the “treated mice survived until sacrifice at 45 days” value ([2]; qd 1-9, 12.5 mg/kg, sacrifice at 45 days) was “Two out of six”. It also gave an IC50 [3, 6] of 3.4 µM.

Work on `COc1cccc2c1C(=O)c1c(O)c3c(c(O)c1C2=O)C[C@@](O)(C(C)=NNC(=O)CCCC(=O)NN=C(C)[C@]1(O)Cc2c(O)c4c(c(O)c2[C@@H](O[C@H]2C[C@H](N)[C@H](O)[C@H](C)O2)C1)C(=O)c1c(OC)cccc1C4=O)C[C@@H]3O[C@H]1C[C@H](N)[C@H](O)[C@H](C)O1` [II, Bis(daunomycin) Glutarylhydrazone Dihydrochloride] yielded an IC50 [1, 8] of 4.5 µM, a response vs control in vivo at 1.56 mg/kg ([2]; Mus musculus, P388, ip, ip P388, treated ip, qd 1-9, optimum dose 1.56 mg/kg, read-out: Antitumor Efficacy T/C) of 188% and a response vs control in vivo at 3.12 mg/kg ([2]; Mus musculus, P388, ip, ip P388, treated ip, qd 1-9, optimum dose 3.12 mg/kg, read-out: Antitumor Efficacy T/C) of 149%. The IC50 [3, 9] was 3.6 µM.

`COc1cccc2c1C(=O)c1c(O)c3c(c(O)c1C2=O)C[C@@](O)(C(C)=NNC(=O)CCCCC(=O)NN=C(C)[C@]1(O)Cc2c(O)c4c(c(O)c2[C@@H](O[C@H]2C[C@H](N)[C@H](O)[C@H](C)O2)C1)C(=O)c1c(OC)cccc1C4=O)C[C@@H]3O[C@H]1C[C@H](N)[C@H](O)[C@H](C)O1` [III, Bis(daunomycin) Adipylhydrazone Dihydrochloride] gave an IC50 [1, 8] of 8.9 µM, a response vs control in vivo at 37.5 mg/kg ([2]; Mus musculus, P388, ip, ip P388, treated ip, q4d 5,9,13, optimum dose 37.5 mg/kg, read-out: Antitumor Efficacy T/C) of 196% and a response vs control in vivo at 6.25 mg/kg [2, 10] of 281%. It also gave an IC50 [3, 9] of 3.6 µM.

`COc1cccc2c1C(=O)c1c(O)c3c(c(O)c1C2=O)C[C@@](O)(C(C)=NNC(=O)CCCCCCC(=O)NN=C(C)[C@]1(O)Cc2c(O)c4c(c(O)c2[C@@H](O[C@H]2C[C@H](N)[C@H](O)[C@H](C)O2)C1)C(=O)c1c(OC)cccc1C4=O)C[C@@H]3O[C@H]1C[C@H](N)[C@H](O)[C@H](C)O1` [IV, Bis(daunomycin) Suberylhydrazone Dihydrochloride] gave an IC50 [1, 8] of 4.9 µM, a response vs control in vivo at 25 mg/kg [2, 11] of 178% and a response vs control in vivo at 8 mg/kg ([2]; Mus musculus, P388, ip, ip P388, treated ip, qd 1-9, optimum dose 8 mg/kg, read-out: Antitumor Efficacy T/C) of 245%. For the same compound, the IC50 [3, 9] was 2.4 µM.

`COc1cccc2c1C(=O)c1c(O)c3c(c(O)c1C2=O)C[C@@](O)(C(C)=NNC(=O)C(=O)NN=C(C)[C@]1(O)Cc2c(O)c4c(c(O)c2[C@@H](O[C@H]2C[C@H](N)[C@H](O)[C@H](C)O2)C1)C(=O)c1c(OC)cccc1C4=O)C[C@@H]3O[C@H]1C[C@H](N)[C@H](O)[C@H](C)O1` [IX, Bis-(Daunomycin) Oxalylhydrazone Dihydrochloride] gave an IC50 [1, 8] of 4.3 µM, a response vs control in vivo at 25 mg/kg [2, 11] of 160% and an IC50 [3, 9] of 2.3 µM.

With `COc1cccc2c1C(=O)c1c(O)c3c(c(O)c1C2=O)C[C@@](O)(C(C)=NNC(=O)CCCCCCCCC(=O)NN=C(C)[C@]1(O)Cc2c(O)c4c(c(O)c2[C@@H](O[C@H]2C[C@H](N)[C@H](O)[C@H](C)O2)C1)C(=O)c1c(OC)cccc1C4=O)C[C@@H]3O[C@H]1C[C@H](N)[C@H](O)[C@H](C)O1` [V, Bis(Daunomycin) Sebacylhydrazone Dihydrochloride] the IC50 [1, 4] was 10 µM, the response vs control in vivo at 12.5 mg/kg [2, 7] was 221% and the response vs control in vivo at 50 mg/kg [2, 7] was 163%. It also gave an IC50 [3, 6] of 1 µM.

`COc1cccc2c1C(=O)c1c(O)c3c(c(O)c1C2=O)C[C@@](O)(C(C)=NNC(=O)CCC(=O)NN=C(C)[C@]1(O)Cc2c(O)c4c(c(O)c2[C@@H](O[C@H]2C[C@H](N(C)C)[C@H](O)[C@H](C)O2)C1)C(=O)c1c(OC)cccc1C4=O)C[C@@H]3O[C@H]1C[C@H](N(C)C)[C@H](O)[C@H](C)O1` [VI, Bis(N,N-dimethyldaunomycin) Succinylhydrazone Dihydrochloride] gave an IC50 [1, 8] of 19 µM, a response vs control in vivo at 25 mg/kg [2, 11] of 158% and a response vs control in vivo at 4 mg/kg ([2]; Mus musculus, P388, ip, ip P388, treated ip, qd 1-9, optimum dose 4 mg/kg, read-out: Antitumor Efficacy T/C) of 178%. The IC50 [3, 9] was 3 µM.

For `COc1cccc2c1C(=O)c1c(O)c3c(c(O)c1C2=O)C[C@@](O)(C(CO)=NNC(=O)CCC(=O)NN=C(CO)[C@]1(O)Cc2c(O)c4c(c(O)c2[C@@H](O[C@H]2C[C@H](N)[C@H](O)[C@H](C)O2)C1)C(=O)c1c(OC)cccc1C4=O)C[C@@H]3O[C@H]1C[C@H](N)[C@H](O)[C@H](C)O1` [VII, Bis(adriamycin) Succinylhydrazone Dihydrochloride], the IC50 [1, 8] was 13.3 µM, the response vs control in vivo at 18.8 mg/kg ([2]; Mus musculus, P388, ip, ip P388, treated ip, q4d 5,9,13, optimum dose 18.8 mg/kg, read-out: Antitumor Efficacy T/C) was 160% and the response vs control in vivo at 6.25 mg/kg [2, 10] was 309%. It also gave an IC50 [3, 9] of 3.1 µM.

For `COc1cccc2c1C(=O)c1c(O)c3c(c(O)c1C2=O)C[C@@](O)(C(C)=NNC(=O)CC(=O)NN=C(C)[C@]1(O)Cc2c(O)c4c(c(O)c2[C@@H](O[C@H]2C[C@H](N)[C@H](O)[C@H](C)O2)C1)C(=O)c1c(OC)cccc1C4=O)C[C@@H]3O[C@H]1C[C@H](N)[C@H](O)[C@H](C)O1` [VIII, Bis(daunomycin) Malonylhydrazone Dihydrochloride], the IC50 [1, 8] was 14.1 µM, the response vs control in vivo at 6.25 mg/kg [2, 10] was 169% and the “Antitumor Efficacy (in words)” value ([2]; ip P388, treated ip, q4d 5,9,13, dose not given) was “inactive”. The IC50 [3, 9] was 7.4 µM.

For `COc1cccc2c1C(=O)c1c(O)c3c(c(O)c1C2=O)C[C@@](O)(C(C)=NNC(=O)CCCCCC(=O)NN=C(C)[C@]1(O)Cc2c(O)c4c(c(O)c2[C@@H](O[C@H]2C[C@H](N)[C@H](O)[C@H](C)O2)C1)C(=O)c1c(OC)cccc1C4=O)C[C@@H]3O[C@H]1C[C@H](N)[C@H](O)[C@H](C)O1` [X, Bis-(daunomycin) Pimelylhydrazone Dihydrochloride], the IC50 [1, 4] was 2 µM, the response vs control in vivo at 25 mg/kg [2, 7] was 160% and the IC50 [3, 6] was 1.3 µM.
